Molecular target: T1, SlyD (EcSlyD) (Escherichia coli, UniProt P0A9K9)
T1 construct: residues 1–165, lacking the unstructured C-terminal tail
Assay: intrinsic fluorescence titration; supported by 2D 1H-15N HSQC NMR titration, in-cell NMR and PPIase inhibition (Ki […])
Format: binding

T1 sequence (P0A9K9 1-165): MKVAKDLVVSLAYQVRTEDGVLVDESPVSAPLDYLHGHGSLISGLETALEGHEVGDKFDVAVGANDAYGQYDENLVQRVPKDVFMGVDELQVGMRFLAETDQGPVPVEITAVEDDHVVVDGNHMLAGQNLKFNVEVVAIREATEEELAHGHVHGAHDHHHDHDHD

SMILES: [Cu+2].c1ccc(-c2cc(-c3c4ccccc4cc4ccccc34)cc(-c3ccccn3)n2)nc1.c1ccc(-c2cc(-c3c4ccccc4cc4ccccc34)cc(-c3ccccn3)n2)nc1 [Cu2+ complex]
- Kd: 45 µM

— article PMC5296862, “Targeting the molecular chaperone SlyD to inhibit bacterial growth with a small molecule” (Scientific Reports, 2017)
